molecular target: T1, human FAAH (Homo sapiens, UniProt O00519); assay: Inhibition of human FAAH (AMC arachidonoyl amide fluorescence assay); type: biochemical; details: inhibitor preincubated 30 minutes at room temperature; 20 μM AMC arachidonoyl amide; 4 hours; read-out: Activity (Ki, inhibitors of human FAAH)
T1 construct: host or cells: COS-7 cells, transient transfection; 13,000 g membrane fraction solubilised in 1% Triton X-100
T1 sequence (O00519 1-579): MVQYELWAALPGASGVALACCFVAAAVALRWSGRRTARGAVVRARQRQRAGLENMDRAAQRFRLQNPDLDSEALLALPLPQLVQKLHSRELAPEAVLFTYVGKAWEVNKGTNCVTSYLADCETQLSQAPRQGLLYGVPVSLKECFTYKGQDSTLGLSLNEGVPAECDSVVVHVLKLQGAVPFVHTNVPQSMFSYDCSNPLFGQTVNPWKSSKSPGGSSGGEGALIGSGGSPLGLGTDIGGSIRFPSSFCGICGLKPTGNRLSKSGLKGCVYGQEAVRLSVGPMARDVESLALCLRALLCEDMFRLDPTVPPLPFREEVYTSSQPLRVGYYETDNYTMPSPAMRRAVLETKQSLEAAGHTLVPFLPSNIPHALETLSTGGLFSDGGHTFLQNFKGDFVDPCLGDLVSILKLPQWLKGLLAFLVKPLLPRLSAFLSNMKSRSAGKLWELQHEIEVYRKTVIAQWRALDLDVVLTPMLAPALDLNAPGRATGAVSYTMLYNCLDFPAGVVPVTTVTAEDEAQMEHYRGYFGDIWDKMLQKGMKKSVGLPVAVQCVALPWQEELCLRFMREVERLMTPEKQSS
Description: Human FAAH Preparation: COS-7 cells were split the day before, 1:5 into 150 mm x […] cell culture dishes (Corning Inc., Cat. No. 430599). Transient transfection took place at 30-40% confluency according to FuGENE 6 Transfection Reagent (Roche, Cat. No. 11814 443 001).
Transfection Procedure: The FuGENE transfection 6 reagent (45 uL) was added to 1410 μL of media (DMEM, serum free without pen/strep) in a 15 mL conical tube and incubated at room temp for 5 minutes, followed by the addition of FAAH plasmid DNA (15 μg) (OriGene Cat. No. TC119221, Genbank Accession No. NM_001441.1, 0.67 ug/uL) and a further incubation of 15 minutes at room temperature. The resulting solution was added into one dish of 30-40% confluent COS-7 cells in a drop-wise manner. The COS-7 cell dish was subsequently incubated for 48 hours. The cells are then harvested.
Harvest procedure: Media was aspirated from the dishes and the cells rinsed with 10 mL PBS. The PBS was removed and 3 mL of PBS added to the dish. The dish was scraped to resuspend the cells, and the subsequent cell suspension collected into a 15 mL conical tube. The cells were pelleted by centrifugation at 1200 rpm for 5 minutes in a bench top centrifuge. PBS was removed and the cell pellet snap frozen in liquid nitrogen and stored at −80° C.
COS-7 cells —FAAH purification: • (1) Fractionation: Frozen cell pellets from transient transfections were thawed on ice and resuspended in 12.5 mM Hepes pH 8.0, 100 mM NaCl, 1 mM EDTA (10 mL/0.2 g cell pellet). The pellets were dounce homogenized and then sonicated to produce cell extract. The cell extract was subsequently centrifuged at 1000 g to remove cellular debris. The pellet was discarded and the supernatant centrifuged at 13,000 g for 20 minutes. The pellet contained membrane bound FAAH. The supernatant was discarded and the pellet resolubilized. • (2) Re-solubilization: The fraction of interest, (13,000 g, membrane fraction) was re-suspended in 2.3 mL re-suspension buffer (20 mM Hepes pH 7.8, 10% v/v Glycerol, 1 mM EDTA, 1% Triton X-100) and the sample incubated on ice for 1 hour and then centrifuged to remove any particulate matter. The supernatant containing solubilized human FAAH was aliquoted and snap frozen in liquid nitrogen and stored at −80° C. until use. • (3) Characterization: Protein Concentration determined by Bradford assay. • SDS gel and Western blot to confirm presence of FAAH • FAAH activity assay • Km determination-96-well assay • Linear dependence—96-well assay • Standard compound Ki determination—384-well assay
Human FAAH assay; Experimental Protocol: A 0.1 mg/mL Human FAAH solution was made up in FAAH reaction buffer, and 24 ul pipeted into a 384 well plate. To this was added 1 μL of a 3 fold serially diluted inhibitor from a DMSO stock solution. The FAAH solution and inhibitor were incubated for 30 minutes at room temperature. The FAAH reaction was initiated by the addition of 25 μL of 40 μM AMC Arachidonoyl Amide in FAAH reaction buffer, yielding a final reaction human FAAH preparation concentration of 0.05 mg/ml and AMC-Arachidonoyl substrate concentration of 20 μM, reaction volume 50 μL. The reaction was allowed to proceed for 4 hours at room temperature. The reaction was stopped by the addition of 25 μL 12 μM a-ketoheterocycle (Cayman Chemicals, catalogue #10435). The microtiter plate was read in the envision plate reader.
The raw fluorescence was plotted on the y axis and the inhibitor concentration on the x axis to give a dose response inhibition curve. The data was fitted to a single site competitive inhibition equation, fixing the Km for the human enzyme to 12 μM and 9 μM respectively.

| Ki [nM] | SMILES |
| --- | --- |
| ≤ 100 | CC1(c2ccc(OC(F)(F)F)cc2)CC(Oc2ccc(-c3ncco3)nc2)=NO1 (racemic) [I-185] |
| 100 to 1000 | Cn1nnc(-c2ccc(OC3=NOC(c4ccc(OC(F)(F)F)cc4)C3)cc2)n1 (racemic) [I-200] |
| 100 to 1000 | OCCNC1=NOC(c2ccc(Oc3ccccc3)cc2)C1 (racemic) [I-243] |
| ≥ 1000 | CC1(c2ccc(OC(F)(F)F)cc2)CC(n2cnc(C(=O)O)n2)=NO1 (racemic) [I-171] |
| ≤ 100 | FC(F)(F)Oc1ccc(C2CC(Oc3ccc(-c4ccco4)nc3)=NO2)cc1 (racemic) [I-186] |
| 100 to 1000 | O=C(O)c1ccc(-c2ccc(OC3=NOC(c4ccc(OC(F)(F)F)cc4)C3)cn2)s1 (racemic) [I-193] |
| ≤ 100 | Fc1cc(OC2=NOC(c3ccc(OC(F)(F)F)cc3)C2)cc(-c2nnco2)c1 (racemic) [I-225] |
| ≤ 100 | Cn1cc(-c2ccc(OC3=NOC(c4ccc(C(F)(F)F)cc4)C3)cn2)cn1 (racemic) [I-219] |
| ≤ 100 | FC(F)(F)Oc1ccc(C2CC(Oc3ccc(-c4nnn[nH]4)nc3)=NO2)cc1 (racemic) [I-195] |
| ≥ 1000 | [O-][S+](C1=NOC(c2ccc(OC(F)(F)F)cc2)C1)c1ccccc1 (racemic) [I-249] |
| ≤ 100 | CC1(c2ccc(OC(F)(F)F)cc2)CC(Oc2ccc(-c3ccn[nH]3)nc2)=NO1 (racemic) [I-242] |
| 100 to 1000 | CC1(c2ccc(OC(F)(F)F)cc2)CC(Oc2ccc(S(C)(=O)=O)cc2)=NO1 (racemic) [I-234] |
| 100 to 1000 | O=C(NCc1ccccc1)c1ccc([C@H]2CC(Oc3ccc(C(=O)O)nc3)=NO2)cc1 (racemic) [I-215] |
| ≥ 1000 | Cc1noc(-c2cccc(OC3=NOC(c4ccc(OC(F)(F)F)cc4)C3)c2)n1 (racemic) [I-199] |
| ≤ 100 | CN(C)C(=O)c1ccc([C@H]2CC(Br)=NO2)cc1 (racemic) [I-203] |
| 100 to 1000 | CN(CC(=O)O)C1=NOC(c2ccc(Oc3ccccc3)cc2)C1 (racemic) [I-244] |
| ≤ 100 | O=C(c1ccc([C@H]2CC(Br)=NO2)cc1)N1CCCC1 (racemic) [I-209] |
| ≤ 100 | Cc1ccc(-c2ccc(OC3=NOC(c4ccc(OC(F)(F)F)cc4)C3)cn2)o1 (racemic) [I-187] |

The remaining lines, values behind:

| SMILES | Ki [nM] |
| --- | --- |
| BrC1=NOC(c2cccc(Oc3ccccc3)c2)C1 (single isomer, unassigned) [I-11] | ≤ 100 |
| NC(=O)c1cncc(OC2=NOC(c3ccc(OC(F)(F)F)cc3)C2)c1 (racemic) [I-53] | 100 to 1000 |
| COC(=O)c1cccc(OC2=NOC(c3ccc(Oc4ccccc4)cc3)C2)c1 (racemic) [I-61] | ≤ 100 |
| FC(F)(F)Oc1ccc(C2CC(Oc3cncnc3)=NO2)cc1 (racemic) [I-112] | ≤ 100 |
| c1ccc(Oc2ccc(C3CC(Oc4cnc5ccoc5c4)=NO3)cc2)cc1 (racemic) [I-69] | ≤ 100 |
| Cc1ccc(OC2=NOC(c3ccc(Oc4ccccc4)cc3)C2)cn1 (single isomer, unassigned) [I-40] | ≤ 100 |
| C[C@]1(c2ccc(-c3ccccc3)cc2)CC(Oc2cncnc2)=NO1 (racemic) [I-104] | ≤ 100 |
| COC(=O)CNC(=O)c1ccc(OC2=NOC(c3ccc(OC(F)(F)F)cc3)C2)cn1 (racemic) [I-105] | ≤ 100 |
| BrC1=NO[C@@H](c2ccc(Br)cc2)C1 (racemic) [I-148] | ≤ 100 |
| C[C@@H]1C(Oc2cccnc2)=NO[C@H]1c1ccc(Oc2ccccc2)cc1 (racemic) [I-91] | ≥ 1000 |
| COC(=O)c1cncc(OC2=NOC(c3ccc(OC(F)(F)F)cc3)C2)c1 (single isomer, unassigned) [I-46] | 100 to 1000 |
| CC(C)(C)OC(=O)Nc1ccc(OC2=NOC(c3ccc(Oc4ccccc4)cc3)C2)cn1 (racemic) [I-92] | ≥ 1000 |
| COc1ncc(OC2=NOC(c3ccc(OC(F)(F)F)cc3)C2)cc1F (racemic) [I-136] | 100 to 1000 |
| COc1cccc(C2CC(Br)=NO2)c1 (single isomer, unassigned) [I-7] | 100 to 1000 |
| CNC(=O)c1cncc(OC2=NOC(c3ccc(OC(F)(F)F)cc3)C2)c1 (racemic) [I-54] | ≤ 100 |
| O=c1ccccn1C1=NOC(c2ccc(Oc3ccccc3)cc2)C1 (single isomer, unassigned) [I-33] | ≥ 1000 |
| Cn1ccc2cc(OC3=NOC(c4ccc(Oc5ccccc5)cc4)C3)cnc21 (single isomer, unassigned) [I-44] | 100 to 1000 |
| BrC1=NOC(c2ccccc2)C1 (single isomer, unassigned) [I-1] | 100 to 1000 |
| FC(F)(F)Oc1ccc(C2CC(Oc3cncnc3)=NO2)cc1Cl (racemic) [I-125] | ≤ 100 |

| SMILES | Ki [nM] |
| --- | --- |
| Clc1ccc([C@H]2CC(Oc3cncnc3)=NO2)cc1 (racemic) [I-153] | 100 to 1000 |
| FC(F)(F)c1ccc(OC2=NOC(c3ccc(Oc4ccccc4)cc3)C2)cn1 (racemic) [I-56] | ≤ 100 |
| Fc1ccc([C@H]2CC(Br)=NO2)cc1 (racemic) [I-2] | 100 to 1000 |
| FC(F)(F)C1(c2ccc(Oc3ccccc3)cc2)CC(Br)=NO1 (racemic) [I-130] | 100 to 1000 |
| COc1ccc([C@@H]2ON=C(Br)[C@H]2C)cc1 (racemic) [I-77] | ≥ 1000 |
| FC(F)(F)C1(c2ccc(Oc3ccccc3)cc2)CC(Oc2cncnc2)=NO1 (racemic) [I-131] | ≤ 100 |
| c1ccc(C2CC(Oc3cncnc3)=NO2)cc1 (racemic) [I-166] | 100 to 1000 |
| FC1(F)Oc2ccc(C3CC(Br)=NO3)cc2O1 (racemic) [I-126] | ≤ 100 |
| FC(F)(F)Oc1ccc(C2CC(Oc3ccc(-c4ncco4)nc3)=NO2)cc1 (racemic) [I-163] | ≤ 100 |
| ClC1=NOC(c2ccc(Oc3ccccc3)cc2)C1 (single isomer, unassigned) [I-17] | ≤ 100 |
| Clc1ccc([C@H]2CC(Br)=NO2)cc1 (racemic) [I-3] | ≤ 100 |
| Fc1cc([C@H]2CC(Oc3cncnc3)=NO2)ccc1OC(F)(F)F (racemic) [I-121] | ≤ 100 |
| CSc1ccc(OC2=NOC(c3ccc(OC(F)(F)F)cc3)C2)cn1 (racemic) [I-134] | ≤ 100 |
| O=C(O)c1cccc(OC2=NOC(c3ccc(Oc4ccccc4)cc3)C2)c1 (racemic) [I-146] | 100 to 1000 |
| N[S@SP3](=O)(=O)c1cccc(OC2=NOC(c3ccc(Oc4ccccc4)cc3)C2)c1 (racemic) [I-63] | ≥ 1000 |
| O=[N+]([O-])c1ccc(OC2=NOC(c3ccc(Oc4ccccc4)cc3)C2)cc1 (single isomer, unassigned) [I-29] | 100 to 1000 |
| COC(=O)c1ccc(OC2=NOC(c3ccc(Oc4ccccc4)cc3)C2)cn1 (racemic) [I-67] | ≤ 100 |
| CS(=O)(=O)c1ccc(OC2=NOC(c3ccc(OC(F)(F)F)cc3)C2)cn1 (racemic) [I-135] | ≤ 100 |
| Cc1nnc(-c2ccc(OC3=NOC(C)(c4ccc(OC(F)(F)F)cc4)C3)cn2)o1 (racemic) [I-156] | ≤ 100 |
